Structures are written as SMILES. A value given as a limit tells only on which side of the number the result lay.

The record followed here is EPA's ToxValDB 9.5 (doi:10.2903/j.efsa.2011.2088).

In series [1] the test system is Folsomia candida. The settings on record: chronic/long-term; duration: 28 days.
In series [2] the test system is Pimephales promelas. The note with it: chronic/long-term; duration: 34 days; reproduction.
Series [3] has as its system Colinus virginianus. The settings on record: for LD50: acute, oral, mortality.
For series [4], the system named is Oncorhynchus mykiss. The note with it: acute; duration: 96 hours; mortality.
The subject of series [5] is Tagia sp. The note with it: mortality.
The test system of series [6] is Daphnia magna. The note with it: chronic/long-term; duration: 21 days; mortality.
In series [7] the test system is Apis mellifera. The settings on record: acute; duration: 48 hours; dermal; mortality.
The subject of series [8] is Anas platyrhynchos. The settings on record: short-term; oral; feed; mortality.
In series [9] the test system is Rattus norvegicus.
In series [10] the test system is Canidae. The settings on record: chronic; duration: 1 years; oral; diet; M/F; Beagle; hematological.
Series [11] relates to Bibionidae. The settings on record: chronic/long-term; duration: 28 days.
The subject of series [12] is Aphidius rhopalosiphi. In words: LR50; higher = less toxic. The note with it: not reported; mortality.
Series [13] relates to Typhlodromus pyri. In words: LR50; higher = less toxic. The note with it: not reported; mortality.

For orientation: NOAEL means the highest tested level that showed no adverse finding. Regarding `O=C(NC(=O)c1c(F)cccc1F)Nc1ccc(Oc2ccc(C(F)(F)F)cc2Cl)cc1F` [Flufenoxuron], the NOEC in series [1] was found to be 0.11 mg/kg; in series [2], 0.00082 mg/L; in [5] (chronic/long-term, duration: 56 days), 5 mg/kg; in series [6], 3.24e-06 mg/L; in [11], 3.6e-05 mg/L. Besides, the LD50 in series [3] (diet) was greater than 1240 mg/kg-day; in series [3], greater than 2000 mg/kg-day; in series [7], greater than 100 µg/piece; in series [8], greater than 1240 mg/kg-day; in series [9] (acute, oral, mortality), greater than 3000 mg/kg-day. The molecule further registered an NOEL in series [3] (reproduction developmental) of 9.76 mg/kg-day. The LC50 in series [4] was greater than 5 ng/mL; in series [5] (acute, duration: 14 days), greater than 1000 mg/kg. Moreover, the NOAEL is 4.3 mg/kg-day in series [9] (reproduction developmental, growth) and no more than 3.8 mg/kg-day in [10]. Moreover, the results for the LR50 in [12] and in series [13] were greater than 386 g/ha and 73 g/ha, respectively.
